Data set [1] concerns rats with established adjuvant arthritis. Nature of the data set: Curative Adjuvant Arthritis. Particulars: for Injected Paw Edema / Non-Injected Paw Edema: change day 16 to day 25; for Body Weight Change: day 16 to day 25. It is filed as in vivo, Male inbred Wistar Lewis rats. An excerpt: An additional test used to determine the utility of the compounds of the present invention is designated: Curative Adjuvant Arthritis. The objective of this test is to evaluate the ability of drugs to decrease edema in rats with established adjuvant arthritis in order to characterize further the anti-inflammatory activity of the compounds of the present invention. Species Male inbred Wistar Lewis rats with an initial body weight of 180-200 g were used. The animals had free access to food and water throughout the test. Drug Preparations and Administration Freund's Complete Adjuvant (FCA) was prepared by suspending 5 mg killed and dried Mycobacterium butyricum (Difco) in 1 mL mineral oil. The test compounds were dissolved, or suspended with a few drops of Tween 80, in distilled water according to their solubility. […] The volume of both hind paws were measured and body weight recorded at that time. On day 16 after FCA injection the volume of both hind paws were again measured. […] Mean body weight for each group was recorded. Drug or vehicle treatment was initiated on day 16. Animals were dosed daily from day 16 to day 25 (i.e. a total of […]). The volume of both hind paws and the body weight of the animal was recorded 2 hours after the last drug administration. Vehicle treated arthritic animals acted as a vehicle-treated control group and animals treated with etodolac (3 mg/kg po) acted as a positive control group. […] The ED50, or dose which causes such an effect in 50% animals, is calculated by probit analysis.

Data set [2] relates to mice injected with a chemical irritant. Nature of the data set: Phenylbenzoquinone-induced Writhing in Mice. In kind it is in vivo, Male Swiss albino mice. Particulars: Mus musculus, po; for ED50: read-out: Phenylquinone Writhing in Mice, ED50. The procedure: A further test used to determine the utility of the compounds of the present invention is designated: Drug Effects on Phenylbenzoquinone-induced Writhing in Mice.
The objective of this test is to determine the ability of test drugs to inhibit the nociceptive (pain) response of mice injected with a chemical irritant. This test is a primary screen for both peripheral and centrally acting analgesic drugs.
Male Swiss albino mice (15-25 g). The animals are fasted for 18 hours prior to use but have free access to water.
Drug Preparation and Administration:
Drugs are dissolved or suspended according to their solubility in 0.5% Tween 80 in distilled water. They are administered by gastric gavage in a volume of 5 mL/kg. For primary screening all drugs are administered at the arbitary dosage of 10 mg/kg, p.o. to a group of 10 mice.
A modification of the method of Siegmund et al, Proc. Soc. Exp. Biol. Med., 95, 729-731 (1957) is used. Groups of 5 mice are dosed with the test compound or vehicle control. Sixty minutes later the animals are injected i.p. with 0.3 mL/20 g body weight of a 0.02% solution of phenylbenzoquinone (PBQ; 2-phenyl-1,4-benzoquinone) and placed in individual observation boxes. The number of writhing or abdominal squirming movements made by each mouse during the following 15 min. period is counted. The experiment is repeated with another group of 5 mice and the mean number of writhes per mouse for a group of 10 mice is calculated.
Drug treated and vehicle-treated control groups are compared and the percentage protection conferred by the drug is calculated: [formula] where c=mean number of writhes in the control group where t=mean number of writhes in the test drug group
(In general: In writhing tests, fewer writhes than in controls are read as antinociception.)

In data set [3] the test system is rats injected intradermally in the left hind paw with Freund's complete adjuvant. Nature of the data set: Preventative Adjuvant Edema. It is filed as in vivo, Male Sprague Dawley rats. The conditions noted are these: Rattus norvegicus, po, 25 mg/kg p.o., edema volume day 3 vs day 0, read-out: Preventative Adjuvant Edema, percent inhibition. The procedure:
This test is a primary screen for anti-inflammatory drugs.
Male Sprague Dawley rats (180-200 g) are used. The animals have free access to water but food is withdrawn 18 hours before testing.
Drug Preparations and Administration:
Freund's complete adjuvant is prepared by suspending 5 mg of killed and dried Mycobacterium butyricum (Difco) in 1 mL mineral oil. The test compounds are dissolved, or suspended in 0.5% Tween 80 in distilled water according to their solubility. For primary screening all drugs are administered by gastric gavage at the arbitrary dosage of 25 mg/kg, p.o. in a volume of 0.5 mL/100 g body weight to groups of 10 animals.
The method is essentially that described by Wax et al, J. Pharmacol. Exp. Ther., 192, 166-171 (1975). Groups of rats are injected intradermally in the left hind paw with 0.1 mL of Freund's complete adjuvant. […] The injected hind paw volume is measured before the injection of adjuvant and 24 hrs. after the last drug administration (day 3) by means of a plethysmometer (Buxco Electronics Inc.). […]
The mean edema volume (expressed as mL±SEM) is calculated for each group and the percentage protection conferred by the drug is calculated: [formula] where c is the mean edema volume for the vehicle-treated (0.5% Tween 80 in distilled water) controls and t is the means edema volume for the drug treated group.

Molecules are shown by their SMILES.

One may read the ED50 as the dose that gives a 50% effect, or the effect in half of the subjects. Broadly, the inhibition is the share of the control response that was lost under treatment. Consider `CCc1cccc2c3c([nH]c12)C(CC)(CC(=O)O)OCC3` (centres unmarked) [etodolac, reference compound], for which, in data set [1] (0.3 mg/kg/day p.o.), the “Injected Paw Edema” value is listed as “+1.12 mL”, the “Non-Injected Paw Edema” value is given as “+1.86 mL” and the “Body Weight Change” value is -3 g. For the same compound, in data set [1] (1 mg/kg/day p.o.), the “Injected Paw Edema” value is “+0.40 mL”, the “Non-Injected Paw Edema” value is listed as “+1.14 mL” and the “Body Weight Change” value is -9 g. In data set [1] (3 mg/kg/day p.o.), the “Injected Paw Edema” value is given as -0.28 mL, the “Non-Injected Paw Edema” value was “+0.51 mL” and the “Body Weight Change” value was “+10 g”. Besides, in data set [2], the 50% effective dose (ED50) was found to be 168 mg/kg. Further, the inhibition at 25 mg/kg in data set [3] worked out at 68%.
For `CCC1(CC(=O)O)OCCc2c1[nH]c1cc(OC(F)(F)F)ccc21` (centres unmarked) [1-Ethyl-1,3,4,9-tetrahydro-7-(trifluoromethoxy)-pyrano[3,4-b]indole-1-acetic Acid], in data set [1] (0.3 mg/kg/day p.o.), the “Injected Paw Edema” value was “+0.53 mL”, the “Non-Injected Paw Edema” value is “+1.21 mL” and the “Body Weight Change” value is on record as “+2 g”. Also, in data set [1] (1 mg/kg/day p.o.), the “anti-inflammatory effect relative to etodolac” value was “intermediate between that produced by 1 and 3 mg/kg etodolac”; the “Injected Paw Edema” value is -0.18 mL; the “Non-Injected Paw Edema” value is “+0.35 mL”; the “Body Weight Change” value was “+2 g”. For the same compound, in data set [1] (3 mg/kg/day p.o.), the “Injected Paw Edema” value was -0.60 mL, the “Non-Injected Paw Edema” value is reported as “+0.11 mL” and the “Body Weight Change” value is “+20 g”. For the same compound, in data set [1] (highest dose, 3 mg/kg/day), the “health as assessed by body weight gain” value is listed as “appeared healthy”. For the same compound, in data set [1] (more potent than etodolac, curative adjuvant arthritis), the “potency relative to etodolac” value is “approximately 2 fold”. For the same compound, in data set [2] (10 mg/kg p.o., read-out: Phenylquinone Writhing in Mice, percent inhibition), the inhibition at 10 mg/kg was 47%. Further, in data set [2], the ED50 is 24 mg/kg. Moreover, in data set [3], the inhibition at 25 mg/kg was determined as 88%.

Source of the values: US5128363A, “Trifluoromethoxy substituted 1,3,4,9-tetrahydropyrano-[3,4-b]indole-1-acetic acids” (American Home Products Corporation, priority 1990, dated 1992).
